pIC50: −log10 of the molar value.
Target: T1, CYP11A1 (Homo sapiens, UniProt P05108)
T1 construct: human H295R adrenocortical carcinoma cell line was used as source of enzyme; endogenous in cells; host or cells: H295R human adrenocortical carcinoma cells
T1 sequence (P05108 40-521): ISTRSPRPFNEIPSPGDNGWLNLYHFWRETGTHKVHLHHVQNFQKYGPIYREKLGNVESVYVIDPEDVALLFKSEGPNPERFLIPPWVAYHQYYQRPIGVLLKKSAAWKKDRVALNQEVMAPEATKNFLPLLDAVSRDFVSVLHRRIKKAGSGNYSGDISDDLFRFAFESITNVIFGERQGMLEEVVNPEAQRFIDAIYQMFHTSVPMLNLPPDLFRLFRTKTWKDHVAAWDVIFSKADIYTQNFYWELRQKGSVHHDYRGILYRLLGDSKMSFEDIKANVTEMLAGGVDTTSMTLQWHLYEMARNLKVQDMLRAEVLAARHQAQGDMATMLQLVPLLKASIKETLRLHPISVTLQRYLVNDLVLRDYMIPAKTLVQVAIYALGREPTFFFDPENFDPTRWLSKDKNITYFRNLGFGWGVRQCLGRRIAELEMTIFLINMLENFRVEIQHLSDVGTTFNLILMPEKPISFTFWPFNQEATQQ
Experiment: CYP11A1 inhibition, isocaproic acid release assay (IARA) in H295R cells
Assay type: cell-based
Conditions: human H295R adrenocortical carcinoma cells treated three days, 3 nM [24,25-3H]-labelled cholesterol, 1% DMSO; read-out: IC50 on CYP11A1 inhibition (Group)
Method: The ability of the test compounds to inhibit conversion of cholesterol to pregnenolone and isocaproic acid was measured by modification of isocaproic acid release assay (IARA) described by Ruangwises et al. (Biology of Reproduction 1991; 45(1):143-50) except that human H295R adrenocortical carcinoma cell line was used as source of enzyme and extraction was done with dextran-coated charcoal suspension (Isomaa, V. et al., Endocrinology 1982; 111(3):833-843). […] To determine the half maximal inhibitory concentration (IC50) of the test compounds on CYP11A1 inhibition, the cells were treated for three days with increasing concentrations of the test compounds in the presence of 3 nM [24,25-3H]-labelled cholesterol (American Radiolabelled Chemicals).
The final DMSO concentration was 1%. Cell culture medium was extracted with dextran-coated charcoal suspension and the radiolabelled isocaproic acid was determined by mixing 100 μl of supernatant fraction in 200 μl of scintillation fluid (OptiPhase SuperMix, Perkin Elmer). Radioactivity was measured using a Microbeta scintillation counter (1450 MicroBeta Trilux, Wallac). All the test compounds were studied at 10 concentrations in duplicates.

SMILES	pIC50
COc1cc(CN2Cc3ccccc3C2)ccc1OCc1ccc(C(=O)N(C)CCOC(C)=O)cc1 [Compound 36, 2-(4-((4-(Isoindolin-2-ylmethyl)-2-methoxyphenoxy)methyl)-N-methyl-benzamido)ethyl acetate]	6.46 to 6.82
COCCc1cc(CN2Cc3ccccc3C2)ccc1OCC1CCN(S(C)(=O)=O)CC1 [Compound 37, 2-(3-(2-Methoxyethyl)-4-((1-(methylsulfonyl)piperidin-4-yl)methoxy)benzyl)-isoindoline]	6.46 to 6.82
CS(=O)(=O)N1CCC(COc2ccc(CN3Cc4ccccc4C3)c3cn[nH]c23)CC1 [Compound 38, 4-(Isoindolin-2-ylmethyl)-7-((1-(methylsulfonyl)piperidin-4-yl)methoxy)-1H-indazole]	> 6.82
COC(=O)c1ccc(COc2ccc(CN3Cc4ccccc4C3)cc2[N+](=O)[O-])cc1 [Compound 39, Methyl 4-((4-(isoindolin-2-ylmethyl)-2-nitrophenoxy)methyl)benzoate]	5.82 to 6.45
CN(C)C(=O)c1ccc(COc2ccc(CN3Cc4ccccc4C3)cc2[N+](=O)[O-])cc1 [Compound 40, 4-((4-(isoindolin-2-ylmethyl)-2-nitrophenoxy)methyl)-N,N-dimethylbenzamide]	> 6.82
CN(C)C(=O)c1ccc(COc2ccc(CN3Cc4ccccc4C3)c3cccnc23)cc1 [Compound 41, 4-(((5-(Isoindolin-2-ylmethyl)quinolin-8-yl)oxy)methyl)-N,N-dimethyl-benzamide]	> 6.82
CC(=O)c1cc(CN2Cc3ccccc3C2)ccc1OCc1ccc(C(=O)N(C)C)cc1 [Compound 42, 4-((2-Acetyl-4-(isoindolin-2-ylmethyl)phenoxy)methyl)-N,N-dimethylbenzamide]	> 6.82
CCS(=O)(=O)c1ccc(COc2ccc(CN3Cc4ccccc4C3)cc2C(C)=O)cc1 [Compound 43, 1-(2-((4-(Ethylsulfonyl)benzyl)oxy)-5-(isoindolin-2-ylmethyl)phenyl)ethan-1-one]	> 6.82
CS(=N)(=O)c1ccc(COc2ccc(CN3Cc4ccccc4C3)c3cccnc23)cc1 (centres unmarked) [Compound 44, Imino(4-(((5-(isoindolin-2-ylmethyl)quinolin-8-yl)oxy)methyl)phenyl)(methyl)-λ^6-sulfanone]	> 6.82
CS(=N)(=O)c1ccc(COc2ccc(CN3Cc4ccccc4C3)c3ocnc23)cc1 (centres unmarked) [Compound 45, Imino(4-(((7-(isoindolin-2-ylmethyl)benzo[d]oxazol-4-yl)oxy)methyl)phenyl)-(methyl)-λ^6-sulfanone]	5.82 to 6.45
CS(=O)(=O)N1CCC(COc2ccc(CN3Cc4ccccc4C3)c3ncoc23)CC1 [Compound 46, 4-(Isoindolin-2-ylmethyl)-7-((1-(methylsulfonyl)piperidin-4-yl)methoxy)-benzo[d]oxazole]	5.82 to 6.45
Cn1ncc2c(CN3Cc4ccccc4C3)ccc(OCC3CCN(S(C)(=O)=O)CC3)c21 [Compound 47, 4-(Isoindolin-2-ylmethyl)-1-methyl-7-((1-(methylsulfonyl)piperidin-4-yl)-methoxy)-1H-indazole]	> 6.82
CC(=O)c1cc(CN2Cc3ccccc3C2)ccc1OCC1CCN(S(C)(=O)=O)CC1 [Compound 48, 1-(5-(Isoindolin-2-ylmethyl)-2-((1-(methylsulfonyl)piperidin-4-yl)methoxy)-phenyl)ethan-1-one]	> 6.82
CCC(=O)N1CCC(COc2ccc(CN3Cc4ccccc4C3)cc2C(C)=O)CC1 [Compound 49, 1-(4-((2-Acetyl-4-(isoindolin-2-ylmethyl)phenoxy)methyl)piperidin-1-yl)propan-1-one]	6.46 to 6.82
CC(=O)c1cc(CN2Cc3ccccc3C2)ccc1OCC1CCC(S(C)(=O)=O)CC1 (centres unmarked) [Compound 50, 1-(5-(Isoindolin-2-ylmethyl)-2-((4-(methylsulfonyl)cyclohexyl)methoxy)-phenyl)ethan-1-one]	6.46 to 6.82
CS(=O)(=O)N1CCC(COc2ccc(CN3Cc4ccccc4C3)c3cccnc23)CC1 [Compound 51, 5-(Isoindolin-2-ylmethyl)-8-((1-(methylsulfonyl)piperidin-4-yl)methoxy)-quinoline]	> 6.82
CN(C)C(=O)c1ccc(COc2ccc(CN3Cc4ccccc4C3)cc2N)cc1 [Compound 52, 4-((2-Amino-4-(isoindolin-2-ylmethyl)phenoxy)methyl)-N,N-dimethyl-benzamide]	5.82 to 6.45
CN(C)C(=O)c1ccc(COc2ccc(CN3Cc4ccccc4C3)cc2NS(C)(=O)=O)cc1 [Compound 53, 4-((4-(Isoindolin-2-ylmethyl)-2-(methylsulfonamido)phenoxy)methyl)-N,N-dimethylbenzamide]	5.82 to 6.45
CS(=O)(=O)c1ccc(COc2ccc(CN3Cc4ccccc4C3)cc2C(N)=O)cc1 [Compound 54, 5-(Isoindolin-2-ylmethyl)-2-((4-(methylsulfonyl)benzyl)oxy)benzamide]	> 6.82
CS(=O)(=O)N1CCC(COc2ccc(CN3Cc4ccccc4C3)cc2C(F)(F)F)CC1 [Compound 56]	6.46 to 6.82

Reference: patent publication US20250011285A1, “CYP11A1 INHIBITORS” (ORION CORPORATION, priority 2021, published 2025)
